This note sets out measurements from patent EP4810040A2, “INHIBITORS OF APOL1 AND METHODS OF USING SAME” (priority 2020, dated 2022).

In this assay the target is T1, APOL1 G1 (Homo sapiens, UniProt O14791, I384M/S342G).
T1 sequence (O14791 28-398 S342G/I384M): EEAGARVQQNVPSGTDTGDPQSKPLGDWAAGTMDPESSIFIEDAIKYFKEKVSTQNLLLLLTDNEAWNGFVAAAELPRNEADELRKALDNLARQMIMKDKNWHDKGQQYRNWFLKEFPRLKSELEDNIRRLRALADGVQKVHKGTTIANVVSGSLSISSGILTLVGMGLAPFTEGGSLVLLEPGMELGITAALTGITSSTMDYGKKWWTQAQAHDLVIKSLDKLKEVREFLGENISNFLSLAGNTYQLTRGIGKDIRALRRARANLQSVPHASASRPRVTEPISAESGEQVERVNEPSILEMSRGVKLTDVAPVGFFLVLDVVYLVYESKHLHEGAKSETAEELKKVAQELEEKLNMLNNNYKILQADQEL
The experiment in a line: MultiTox-Fluor Multiplex Cytotoxicity Assay, tet-inducible APOL1 G1 T-REx-HEK293 cells. As to conditions: for IC90: HEK293, Multi-Tox Assay, APOL1 variant (G0/G1/G2) of the HEK293 cells not given, read-out: Multi-Tox Assay IC90; for Multi-Tox Assay Max Activity (%) / Emax: APOL1 variant not given, Multi-Tox Assay; for Emax: read-out: Multi-Tox Assay Max Activity (%). The assay is classed as cell-based. More on the design: expressed in transfected cells; host or cells: T-REx HEK293, clone G1 DC3.25 (pAAVS1-Puro-APOL1 G1). Here is the method: The MultiTox-Fluor Multiplex Cytotoxicity Assay is a single-reagent-addition, homogeneous, fluorescence assay that measures the number of live and dead cells simultaneously in culture wells. The assay measures cell viability and cytotoxicity by detecting two distinct protease activities. The live-cell protease activity is restricted to intact viable cells and is measured using a fluorogenic, cell-permeant peptide glycyl-phenylalanylamino fluorocoumarin (GF-AFC) substrate. The substrate enters intact cells, where it is cleaved to generate a fluorescent signal proportional to the number of living cells. […] A second, cell-impermeant, fluorogenic peptide substrate (bis-AAF-R110 Substrate) is used to measure dead-cell protease that has been released from cells that have lost membrane integrity. A ratio of dead to live cells is used to normalize data.
Briefly, the tet-inducible transgenic APOL1 T-REx-HEK293 cell lines were incubated with 50 ng/mL tet to induce APOL1 in the presence of 3-(2-(4-fluorophenyl)-1H-indol-3-yl)-N-((3S,4R)-4-hydroxy-2-oxopyrrolidin-3-yl)propenamide at […], 0.0045, 0.0015, 0.0005 µM in duplicate for 24 hours in a humidified 37°C incubator. The MultiTox reagent was added to each well and placed back in the incubator for an additional 30 minutes. The plate was read on the EnVision plate reader. A ratio of dead to live cells was used to normalize, and data was imported, analyzed and fit using Genedata Screener (Basel, Switzerland) software. Data was normalized using percent of control, no tet (100% viability), and 50 ng/mL tet treated (0% viability),and fit using Smart Fit. The reagents, methods, and complete protocol for the MultiTox assay are described below. Table 42. Reagents Used in the Multi-Tox Assay
Human embryonic kidney (HEK293) cell lines containing a tet-inducible expression system (T-REx™; Invitrogen, Carlsbad, CA) and Adeno-associated virus site 1 pAA VS1-Puro-APOL1 G0 or pAAVS1-Puro-APOL1 G1 or pAAVS1-Puro-APOL1 G2 Clones G0 DC2.13, G1 DC3.25, and G2 DC4.44 were grown in a T-225 flask at ~90% confluency in cell growth media (DMEM, 10% Tet-free FBS, 2 mM L-glutamine, 100 Units/mL penicillin-streptomycin, 5 µg/mL blasticidin S HCl, 1 µg/mL puromycin dihydrochloride). Cells were washed with DPBS and then trypsinized to dissociate from the flask. Media was used to quench the trypsin, cells were then pelleted at 200g and resuspended in fresh cell assay media (DMEM, 2% Tet-free FBS, 2 mM L-glutamine, 100 Units/mL penicillin-streptomycin). Cells were counted and diluted to 1.17 x 10^6 cells/mL. 20 µL of cells (23,400/well) were dispensed to every well of a 384-well Poly-D-Lysine coated plate using the Multidrop dispenser. The plates were then incubated at room temperature for one hour.
Tetracycline is needed to induce APOL1 expression. 1 mg/mL tet stock in water was diluted to 250 ng/mL (5X) in cell assay media. 60 µL of cell assay media (no tet control) was dispensed in columns 1 and 24, and 60 µL of 5X tet was dispensed in 384-PP-round bottom plate in columns 2 to 23 with the Multidrop dispenser.
Assay ready plates from the Global Compound Archive were ordered using template 384_APOL1Cell_DR10n2_50uM_v3. Compounds were dispensed at 200 nL in DMSO. The final top concentration was 10 µM with a 10 point 3-fold dilution in duplicate in the MultiTox assay.
20 µL were transferred from the 5X tet plate to the ARP and mixed, then 5 µL of 5X tet and the compounds were transferred to the cell plate and mixed using the Bravo. The cell plate was placed in the humidified 37°C 5% CO2 incubator for 24 hours.
The MultiTox-Fluor Multiplex Cytotoxicity Assay was performed in accordance with the manufacturer's protocol. […]

A word on the IC90: it is the concentration needed for an effect of 90%.

SMILES strings stand for the structures.

For the molecule `C[C@H]1C[C@@]2(C[C@@H](c3cnn(CC(C)(CO)CO)c3)N1)OCCc1cc(Cl)sc12` (racemic) [Compound 103], the IC90 was under 50 nM and the “Multi-Tox Assay Max Activity (%)” value is reported as 99.6%.

With `CC(CO)Cn1cc([C@@H]2C[C@]3(C[C@H](C)N2)OC[C@@H](O)c2cc(Cl)sc23)nn1` (stereo partly shown) [Compound 256], the IC90 lay within 50 to 500 nM and the “Multi-Tox Assay Max Activity (%)” value worked out at 96.0%.

Regarding `COc1cc(O)cc([C@@H]2C[C@]3(C[C@H](C)N2)OCCc2cc(Cl)sc23)c1` (racemic) [Compound 137], the IC90 is 50 to 500 nM and the “Multi-Tox Assay Max Activity (%)” value worked out at 98.7%.

For the molecule `C[C@H]1C[C@@]2(C[C@@H](c3cn(Cc4ncnc5[nH]ccc45)nn3)N1)OCC(F)(F)c1cc(Cl)sc12` [Compound 350], the IC90 was in the range of 50 to 500 nM.

On to `Cc1nc(Cn2cc([C@@H]3C[C@]4(C[C@H](C)N3)OCC(F)(F)c3cc(Cl)sc34)nn2)oc1C` [Compound 337], for which the IC90 fell in the range of 50 to 500 nM.

On to `CNC(=O)C(C)Cn1cc([C@@H]2C[C@]3(C[C@H](C)N2)OC[C@@H](O)c2cc(Cl)sc23)nn1` (stereo partly shown) [Compound 258], for which the IC90 was over 500 nM and the “Multi-Tox Assay Max Activity (%)” value amounted to 98.0%.

Turning to `Cc1cncc([C@@H]2C[C@]3(C[C@H](C)N2)OCCc2cc(Cl)sc23)c1` (racemic) [Compound 64], the IC90 was under 50 nM and the Emax was 100%.

As for `CCc1cc2c(s1)C(C)COC21C[C@@H](c2cn(C)nn2)N[C@@H](C)C1` (single isomer, unassigned) [Compound 10], the IC90 is under 50 nM and the “Multi-Tox Assay Max Activity (%)” value worked out at 99.7%.

Turning to `Cc1ccc([C@@H]2C[C@]3(C[C@H](C)N2)OCCc2cc(Cl)sc23)cn1` (racemic) [Compound 55], the IC90 is under 50 nM and the “Multi-Tox Assay Max Activity (%)” value came out at 99.7%.

Take `COCCn1cc([C@@H]2C[C@]3(C[C@H](C)N2)OC[C@@H](O)c2cc(Cl)sc23)nn1` [Compound 282]: the IC90 was 50 to 500 nM.

As for `Cc1cc([C@@H]2C[C@]3(C[C@H](C)N2)OCCc2cc(Cl)sc23)nc(N(C)C)n1` (racemic) [Compound 138], the IC90 lay within 50 to 500 nM and the “Multi-Tox Assay Max Activity (%)” value came out at 98.0%.

For `C[C@H]1C[C@@]2(C[C@@H](c3cn(CC4CCOC4)nn3)N1)OCC(F)(F)c1cc(Cl)sc12` (stereo partly shown) [Compound 311], the IC90 is 50 to 500 nM.

With `C[C@H]1C[C@@]2(C[C@@H](c3cn(Cc4ccc(O)nc4)nn3)N1)OC[C@@H](O)c1cc(Cl)sc12` [Compound 275], the IC90 is over 500 nM and the “Multi-Tox Assay Max Activity (%)” value is listed as 94.0%.

With `Cc1noc2cc([C@@H]3C[C@]4(C[C@H](C)N3)OCCc3cc(Cl)sc34)ccc12` (racemic) [Compound 25], the IC90 was under 50 nM and the “Multi-Tox Assay Max Activity (%)” value came out at 100.0%.

On to `Cc1nocc1[C@@H]1C[C@]2(C[C@H](C)N1)OCCc1cc(Cl)sc12` (racemic) [Compound 132], for which the IC90 lay within 50 to 500 nM and the “Multi-Tox Assay Max Activity (%)” value is 99.3%.

As to `COCCn1cc([C@@H]2C[C@]3(C[C@H](C)N2)OCC(F)(F)c2cc(Cl)sc23)nn1` [Compound 323], the concentration for an effect of 90% (IC90) fell in the range of 50 to 500 nM and the “Multi-Tox Assay Max Activity (%)” value was determined as 100.0%.

For `C[C@H]1C[C@@]2(C[C@@H](c3cn(C)nn3)N1)OC[C@H](O)c1cc(Cl)sc12` [Compound 177, (2'S,4R,6'S,7S)-2-chloro-2'-methyl-6'-(1-methyltriazol-4-yl)spiro[4,5-dihydrothieno[2,3-c]pyran-7,4'-piperidine]-4-ol], the IC90 was under 50 nM and the Emax is 100%.

On to `C[C@H]1C[C@@]2(C[C@@H](c3cccc(S(N)(=O)=O)c3)N1)OCCc1cc(Cl)sc12` (racemic) [Compound 147], for which the IC90 is over 500 nM and the “Multi-Tox Assay Max Activity (%)” value is reported as 92.3%.

Take `C#C[C@@H]1C[C@]2(C[C@H](C)N1)OCCc1cc(Cl)sc12` [Compound 221, (2S,4S,6S)-2'-chloro-2-ethynyl-6-methyl-4',5'-dihydrospiro[piperidine-4,7'-thieno[2,3-c]pyran]]: the IC90 fell in the range of 50 to 500 nM and the Emax is 99%.
